Data from patent US7115622B2, “Amido ether substituted imidazoquinolines” (3M Innovative Properties Company, priority 2000, dated 2006).

Key:
interferon (α) = assay: Cytokine Induction in Human Cells: interferon induction in PBMC; assay type: cell-based; set-up: key to Lowest Effective Concentration (μM) Interferon: *: no induction was seen at any of the tested concentrations; generally the highest concentration tested was 10 or 30 μM; details: 18 to 24 hours incubation, tested 30–0.014 μM, ELISA; for minimal effective concentration: read-out: Lowest Effective Concentration (μM) Interferon
Text: (§1) An in vitro human blood cell system is used to assess cytokine induction. Activity is based on the measurement of interferon and tumor necrosis factor (α) (IFN and TNF, respectively) secreted into culture media as described by Testerman et. al. In “Cytokine Induction by the Immunomodulators Imiquimod and S-27609”, Journal of Leukocyte Biology, 58, 365–372 (September, 1995).
(§2) Whole blood from healthy human donors is collected by venipuncture into EDTA vacutainer tubes. Peripheral blood mononuclear cells (PBMC) are separated from whole blood by density gradient centrifugation using Histopaque®-1077. Blood is diluted 1:1 with Dulbecco's Phosphate Buffered Saline (DPBS) or Hank's Balanced Salts Solution (HBSS). The PBMC layer is collected and washed twice with DPBS or HBSS and resuspended at 4×10^6 cells/mL in RPMI complete. The PBMC suspension is added to 48 well flat bottom sterile tissue culture plates (Costar, Cambridge, Mass. or Becton Dickinson Labware, Lincoln Park, N.J.) containing an equal volume of RPMI complete media containing test compound.
(§3) The compounds are solubilized in dimethyl sulfoxide (DMSO). The DMSO concentration should not exceed a final concentration of 1% for addition to the culture wells. The compounds are generally tested at concentrations ranging from 30–0.014 μM.
(§4) The solution of test compound is added at 60 μM to the first well containing RPMI complete and serial 3 fold dilutions are made in the wells. The PBMC suspension is then added to the wells in an equal volume, bringing the test compound concentrations to the desired range (30–0.014 μM). The final concentration of PBMC suspension is 2×10^6 cells/mL. The plates are covered with sterile plastic lids, mixed gently and then incubated for 18 to 24 hours at 37° C. in a 5% carbon dioxide atmosphere.
(§5) Following incubation the plates are centrifuged for 10 minutes at 1000 rpm (˜200×g) at 4° C. The cell-free culture supernatant is removed with a sterile polypropylene pipet and transferred to sterile polypropylene tubes. Samples are maintained at −30 to −70° C. until analysis. The samples are analyzed for interferon (α) by ELISA and for tumor necrosis factor (α) by ELISA or IGEN Assay
Interferon (α) and Tumor Necrosis Factor (α) Analysis by ELISA Interferon (α) concentration is determined by ELISA using a Human Multi-Species kit from PBL Biomedical Laboratories, New Brunswick, N.J. Results are expressed in pg/mL.
(§6) The table below lists the lowest concentration found to induce interferon and the lowest concentration found to induce tumor necrosis factor for each compound.

[1] = system: tumor necrosis factor (α); assay: Cytokine Induction in Human Cells: tumor necrosis factor induction in PBMC; assay type: cell-based; set-up: key to Lowest Effective Concentration (μM) Tumor Necrosis Factor: *: no induction was seen at any of the tested concentrations; generally the highest concentration tested was 10 or 30 μM; details: 18 to 24 hours incubation, tested 30–0.014 μM, ELISA or IGEN assay; for minimal effective concentration: read-out: Lowest Effective Concentration (μM) Tumor Necrosis Factor
Text: as §1, §2, §3, §4, §5
Tumor necrosis factor (α) (TNF) concentration is determined using ELISA kits available from Biosource International, Camarillo, Calif. Alternately, the TNF concentration can be determined by Origen® M-Series Immunoassay and read on an IGEN M-8 analyzer from IGEN International, Gaithersburg, Md. The immunoassay uses a human TNF capture and detection antibody pair from Biosource International, Camarillo, Calif. Results are expressed in pg/mL.
as §6

Row | Compound | melting point | minimal effective concentration (interferon (α)) | minimal effective concentration [1] | further results
1 | CCOCc1nc2c(N)nc3ccccc3c2n1CCOCCNC(=O)c1ccccc1 [Example 72, N-(2-{2-[4-amino-2-(ethoxymethyl)-1H-imidazo[4,5-c]quinolin-1-yl]ethoxy}ethyl)benzamide] | 154 to 156 °C |  |  | 
2 | COCCc1nc2c(N)nc3c(c2n1CCOCCNC(=O)c1ccccc1)CCCC3 [Example 6, N-(2-{2-[4-amino-2-(2-methoxyethyl)-6,7,8,9-tetrahydro-1H-imidazo[4,5-c]quinolin-1-yl]ethoxy}ethyl)benzamide] | 141 to 143 °C |  |  | 
3 | COCCc1nc2c(N)nc3ccccc3c2n1CCOCCNC(=O)c1ccccc1 [Example 4, N-(2-{2-[4-amino-2-(2-methoxyethyl)-1H-imidazo[4,5-c]quinolin-1-yl]ethoxy}ethyl)benzamide] | 184 to 187 °C |  |  | 
4 | COCCc1nc2c(N)nc3ccccc3c2n1CCOCCN(C)C(=O)c1ccccc1 [Example 8, N-(2-{2-[4-amino-2-(2-methoxyethyl)-1H-imidazo[4,5-c]quinolin-1-yl]ethoxy}ethyl)-N-methylbenzamide] | 93.5 to 97 °C |  |  | 
5 | COCCc1nc2c(N)nc3c(c2n1CCOCCN(C)C(=O)c1ccccc1)CCCC3 [Example 10, N-(2-{2-[4-amino-2-(2-methoxyethyl)-6,7,8,9-tetrahydro-1H-imidazo[4,5-c]quinolin-1-yl]ethoxy}ethyl)-N-methylbenzamide] | 83 to 87 °C |  |  | 
6 | CCc1nc2c(N)nc3ccccc3c2n1CCOCCNC(=O)c1ccccc1 [Example 71, N-{2-[2-(4-amino-2-ethyl-1H-imidazo[4,5-c]quinolin-1-yl)ethoxy]ethyl}benzamide] | 188 to 191 °C |  |  | 
7 | CCC(COCCC1CCN(C(=O)C2CC2)CC1)n1cnc2c(N)nc3ccccc3c21 (stereo not drawn) [Example 35] |  | 0.1 µM | 1 µM | 
8 | CCCCc1nc2c(N)nc3ccccc3c2n1CCOCCNC(=O)c1cccc(OC)c1 [Example 26] |  | 1 µM | 10 µM | 
9 | Nc1nc2ccccc2c2c1ncn2CCOCCNC(=O)C1CCCCC1 [Example 54] |  | 10 µM | 10 µM | 
10 | N#Cc1ccc(C(=O)NCCOCCn2cnc3c(N)nc4ccccc4c32)cc1 [Example 57] |  | 10 µM |  | Lowest Effective Concentration (μM) Tumor Necrosis Factor [1]: *
11 | CCCCC(=O)NCCOCCn1c(CCCC)nc2c(N)nc3ccccc3c21 [Example 16] |  | 0.1 µM | 1 µM | 
12 | COc1ccc(C(=O)NCCOCCn2cnc3c(N)nc4ccccc4c32)cc1 [Example 60] |  | 10 µM | 10 µM | 
13 | Nc1nc2ccccc2c2c1ncn2CCOCCNC(=O)c1ccccc1 [Example 53] |  | 10 µM | 10 µM | 
14 | CN(C(=O)CCCCOCCn1cnc2c(N)nc3ccccc3c21)c1ccccc1 [Example 12, 5-[2-(4-amino-1H-imidazo[4,5-c]quinolin-1-yl)ethoxy]-N-methyl-N-phenylpentanamide] |  | 3.33 µM |  | Lowest Effective Concentration (μM) Tumor Necrosis Factor [1]: *
15 | CCCCc1nc2c(N)nc3ccccc3c2n1CCOCCNC(=O)c1cccc(C(F)(F)F)c1 [Example 32] |  |  | 10 µM | Lowest Effective Concentration (μM) Interferon (interferon (α)): *
